Assay results reported in paper PMC8398081, “Antioxidant Activity, α-Glucosidase Inhibition and UHPLC–ESI–MS/MS Profile of Shmar (Arbutus pavarii Pamp)” (Plants, 2021).

Columns and labels:
[1] = DPPH free radical scavenging assay; details: 30 min in dark, 517 nm; mean ± SD, n=3
Method: The DPPH assay was conducted in accordance with Lee et al. method. Initially, 100 µL of DPPH (5.9 mg in 100 mL ethanol) was mixed with 50 µL of the extracts or fractions. The mixtures were then kept in dark for 30 min at room temperature. The absorbance was measured using microplate reader at 517 nm. Quercetin was used as a positive control in the assay. The scavenging activity was calculated using the equation Scavenging Activity (%) = [(Ac – As)/Ac] × 100%, where (Ac) is the absorbance of the blank reagent while (As) is the absorbance of the tested samples. The analysis was performed in triplicates and the results were described as IC50 value.

[2] = Ferric reducing antioxidant power (FRAP) assay; details: 37 °C, 30 min, 593 nm; FeSO4 standard curve; mean ± SD, n=3
Method: The FRAP of extracts and fractions were examined according to Kadum et al. method with slight modifications. […] A volume of 10 μL of methanol extract or fractions was transferred into 96-well microplates, followed by addition of 200 μL FRAP reagent and incubation at 37 °C for 30 min. The absorbance was checked through microplate reader (SPECTRAmax PLUS) at 593 nm. The absorbances of ferrous sulfate solution (FeSO4·7H2O), with a range of concentrations between 0.1 and 1 mM were used for plotting a calibration curve. The ascorbic acid was used as positive control and FRAP was presented as mM Fe (II)/g extract for extracts and mM Fe (II)/g fraction for fractions.

Row | DPPH IC50 [1] [µg/mL] | SMILES | FRAP [2]
1 | 8.6 ± 0.70 | O=c1c(O)c(-c2ccc(O)c(O)c2)oc2cc(O)cc(O)c12 [Quercetin] | 
2 |  | O=C1O[C@H]([C@@H](O)CO)C(O)=C1O [Ascorbic acid] | 180.64 ± 0.01 mmol Fe (II)/g Extract
